The target of series [1] is T1, Histone-lysine N-methyltransferase SUV39H1 (Homo sapiens) (UniProt O43463).
T1 sequence (whole entry): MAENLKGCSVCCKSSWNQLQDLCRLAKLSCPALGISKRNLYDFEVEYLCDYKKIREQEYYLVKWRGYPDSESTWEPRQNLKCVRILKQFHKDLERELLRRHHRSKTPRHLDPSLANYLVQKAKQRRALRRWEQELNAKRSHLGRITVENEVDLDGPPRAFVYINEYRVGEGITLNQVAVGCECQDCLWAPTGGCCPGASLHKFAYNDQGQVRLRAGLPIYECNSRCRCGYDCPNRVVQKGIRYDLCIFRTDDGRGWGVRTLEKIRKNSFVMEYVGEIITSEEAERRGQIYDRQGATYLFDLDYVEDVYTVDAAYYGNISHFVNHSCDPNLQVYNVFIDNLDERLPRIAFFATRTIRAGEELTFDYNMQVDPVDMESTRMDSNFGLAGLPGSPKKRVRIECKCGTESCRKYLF
The series can be described thus: Displacement of 3H-SAM from SUV39H1 (unknown origin) using biotinylated-histone H3 peptide as substrate at 10 uM incubated for 45 mins by SPA assay relative to control.

Series [2] deals with T2, Histone-lysine N-methyltransferase SMYD3 (Homo sapiens) (UniProt Q9H7B4).
T2 sequence (whole entry): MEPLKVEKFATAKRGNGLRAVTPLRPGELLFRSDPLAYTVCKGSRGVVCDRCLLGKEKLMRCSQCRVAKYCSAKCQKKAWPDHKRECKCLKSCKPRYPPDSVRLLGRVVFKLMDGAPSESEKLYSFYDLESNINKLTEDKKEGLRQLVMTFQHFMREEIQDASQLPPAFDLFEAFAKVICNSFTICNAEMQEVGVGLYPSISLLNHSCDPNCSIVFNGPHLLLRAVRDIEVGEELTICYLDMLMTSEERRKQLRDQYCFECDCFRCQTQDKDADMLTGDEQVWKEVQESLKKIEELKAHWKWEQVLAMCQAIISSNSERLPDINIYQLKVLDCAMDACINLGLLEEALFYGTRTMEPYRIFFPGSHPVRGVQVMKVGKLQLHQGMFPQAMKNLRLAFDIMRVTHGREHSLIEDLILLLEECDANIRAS
The experiment in a line: Displacement of 3H-SAM from SMYD3 (unknown origin) using biotinylated-MAP3K2 as substrate at 10 uM incubated for 45 mins by SPA assay relative to control. Background: Displacement assays read how much labelled ligand stays bound in the presence of the test substance.

For series [3], the target named is T3, Histone-arginine methyltransferase CARM1 (Homo sapiens, UniProt Q86X55).
T3 sequence (Q86X55 whole entry): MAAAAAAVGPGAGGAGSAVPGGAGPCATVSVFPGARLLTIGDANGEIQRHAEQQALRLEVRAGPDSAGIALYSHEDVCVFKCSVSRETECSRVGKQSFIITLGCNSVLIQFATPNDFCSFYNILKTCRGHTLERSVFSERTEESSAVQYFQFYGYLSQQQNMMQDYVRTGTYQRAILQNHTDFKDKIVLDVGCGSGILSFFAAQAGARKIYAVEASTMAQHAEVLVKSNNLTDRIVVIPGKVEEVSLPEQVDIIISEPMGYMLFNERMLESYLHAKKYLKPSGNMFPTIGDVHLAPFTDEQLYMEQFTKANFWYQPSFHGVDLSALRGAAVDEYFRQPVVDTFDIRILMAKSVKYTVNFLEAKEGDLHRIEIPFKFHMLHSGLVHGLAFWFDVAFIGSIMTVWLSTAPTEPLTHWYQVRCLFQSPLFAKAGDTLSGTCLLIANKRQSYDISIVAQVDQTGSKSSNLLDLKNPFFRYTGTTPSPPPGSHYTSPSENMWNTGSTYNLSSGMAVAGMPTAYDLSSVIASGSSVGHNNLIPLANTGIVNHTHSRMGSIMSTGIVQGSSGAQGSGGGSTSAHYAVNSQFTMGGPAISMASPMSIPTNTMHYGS
The experiment in a line: Binding affinity to PRMT4 (unknown origin) assessed as dissociation constant by ITC analysis. (In ITC the heat of successive injections is recorded.)

Series [4] is described as follows: Lipophilicity, log D of compound in 1-octanol at pH 7.4 incubated for 4 hrs by HPLC-UV analysis. In kind it is physicochemical. The note with it: 1-octanol/aqueous phase.
Series [5] deals with T2, Histone-lysine N-methyltransferase SMYD3 (Homo sapiens). The series can be described thus: Displacement of 3H-SAM from SMYD3 (unknown origin) using biotinylated-MAP3K2 as substrate at 30 uM incubated for 45 mins by SPA assay relative to control.
The target in series [6] is Histone-lysine N-methyltransferase, H3 lysine-79 specific (Homo sapiens) (UniProt Q8TEK3). The series can be described thus: Displacement of 3H-SAM from DOT1L (unknown origin) at 30 uM incubated for 1 hr in presence of substrate by SPA assay relative to control.
Sequence of Histone-lysine N-methyltransferase, H3 lysine-79 specific (Homo sapiens) (Q8TEK3 whole entry, looked up): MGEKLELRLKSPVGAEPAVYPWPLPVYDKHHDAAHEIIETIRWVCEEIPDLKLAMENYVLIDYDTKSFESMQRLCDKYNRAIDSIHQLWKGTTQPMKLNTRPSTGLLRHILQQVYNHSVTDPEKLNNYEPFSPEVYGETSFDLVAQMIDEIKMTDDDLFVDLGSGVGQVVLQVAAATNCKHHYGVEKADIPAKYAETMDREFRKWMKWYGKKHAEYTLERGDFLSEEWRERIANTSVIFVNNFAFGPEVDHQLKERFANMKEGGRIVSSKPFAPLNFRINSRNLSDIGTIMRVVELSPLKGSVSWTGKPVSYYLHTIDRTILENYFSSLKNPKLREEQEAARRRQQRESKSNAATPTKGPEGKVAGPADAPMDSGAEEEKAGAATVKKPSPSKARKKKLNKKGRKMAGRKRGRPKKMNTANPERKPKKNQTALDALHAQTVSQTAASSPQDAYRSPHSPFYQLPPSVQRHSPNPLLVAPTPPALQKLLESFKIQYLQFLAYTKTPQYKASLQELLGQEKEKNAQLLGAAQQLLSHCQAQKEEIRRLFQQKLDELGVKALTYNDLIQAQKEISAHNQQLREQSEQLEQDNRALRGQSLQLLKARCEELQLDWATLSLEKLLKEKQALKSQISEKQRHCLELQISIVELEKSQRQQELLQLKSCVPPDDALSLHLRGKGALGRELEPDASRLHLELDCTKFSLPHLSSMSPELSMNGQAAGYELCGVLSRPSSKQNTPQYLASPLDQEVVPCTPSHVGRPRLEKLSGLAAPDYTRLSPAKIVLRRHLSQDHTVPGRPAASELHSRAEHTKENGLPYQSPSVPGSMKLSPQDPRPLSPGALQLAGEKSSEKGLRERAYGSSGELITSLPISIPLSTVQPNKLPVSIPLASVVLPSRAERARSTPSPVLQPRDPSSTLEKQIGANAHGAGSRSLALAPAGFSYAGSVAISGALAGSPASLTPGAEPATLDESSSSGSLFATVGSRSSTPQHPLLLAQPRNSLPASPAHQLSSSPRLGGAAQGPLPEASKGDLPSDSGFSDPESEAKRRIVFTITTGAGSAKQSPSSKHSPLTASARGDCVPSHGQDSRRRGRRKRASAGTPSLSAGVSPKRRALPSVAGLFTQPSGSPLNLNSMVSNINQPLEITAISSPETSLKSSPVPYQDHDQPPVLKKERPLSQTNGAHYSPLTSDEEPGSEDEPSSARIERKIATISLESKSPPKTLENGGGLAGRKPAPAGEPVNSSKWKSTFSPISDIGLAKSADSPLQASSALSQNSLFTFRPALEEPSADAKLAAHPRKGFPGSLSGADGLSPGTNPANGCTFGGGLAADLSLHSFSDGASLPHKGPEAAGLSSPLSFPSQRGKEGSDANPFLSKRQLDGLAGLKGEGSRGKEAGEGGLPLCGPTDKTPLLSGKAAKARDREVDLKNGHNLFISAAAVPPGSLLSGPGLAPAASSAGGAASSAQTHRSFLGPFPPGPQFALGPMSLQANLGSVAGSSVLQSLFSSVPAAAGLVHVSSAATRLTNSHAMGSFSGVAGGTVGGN
For series [7], the target named is T1, Histone-lysine N-methyltransferase SUV39H1 (Homo sapiens). The experiment in a line: Displacement of 3H-SAM from SUV39H1 (unknown origin) using biotinylated-histone H3 peptide as substrate at 30 uM incubated for 45 mins by SPA assay relative to control.

Where only a bound is given, the exact number is not on record here.

On to `CNCCN1CC[C@H](NC(=O)c2ccc3c(Nc4ccc(CN)cc4)ncnc3c2)C1`, for which the inhibition in series [1] and in series [2] was < 25% throughout. Besides, the Kd (in general, the free concentration of one partner at which half of the binding sites on the other are occupied at equilibrium, for simple one-to-one binding) in series [3] came out at 20 µM.

With `CNCCN1CCC(NC(=O)c2ccc3c(Nc4ccc(CN)cc4)ncnc3c2)C1` (racemic), in series [4], the logD – broadly, the decadic logarithm of the distribution of all forms, ionised or not, between an organic phase and buffer at a given pH – at 4 h is -2.16. For the same compound, the inhibition (in general, the relative decrease from the control value, in per cent) in series [5] was < 25%; in series [6], 11%; in series [7], < 25%.

Turning to `CNCCN1CC[C@@H](NC(=O)c2ccc3c(Nc4ccc(CN)cc4)ncnc3c2)C1`, the inhibition in series [1] and in series [2] was < 25% each time. Also, in series [4], the logD at 4 h is -2.27. The Kd in series [3] came to 25 µM.

(Values after ChEMBL document CHEMBL5625232, “Development of selective class I protein arginine methyltransferase inhibitors through fragment-based drug design approach” (Eur J Med Chem, 2023).)
